Assay results published in patent publication US6632820B1, “Pyrimidine compounds” (AstraZeneca AB, priority 1998, dated 2003).

Biological target: T1, CDK4/Cyclin D1 (Homo sapiens, UniProt P11802)
T1 construct: made in house; host or cells: SF21 insect cells (Spodoptera frugiperda), baculovirus co-infection, vector pVL1393
Experiment: CDK Inhibition Assay (Scintillation Proximity Assay, GST-Retinoblastoma substrate)
Format: biochemical
Details: in-vitro kinase assay, incorporation of [γ-33-P]-ATP into GST-Rb, 60 minutes at room temperature; read-out: CDK4 inhibitory activity IC50
Description: The compounds were tested in an in vitro kinase assay in 96 well format using Scintillation Proximity Assay (SPA—obtained from Amersham) for measuring incorporation of [γ-33-P]-Adenosine Triphosphate into a test substrate (GST-Retinoblastoma). In each well was placed the compound to be tested (diluted in DMSO and water to correct, concentrations) and in control wells either p 16 as an inhibitor control or DMSO as a positive control. Approximately 0.5 μl of CDK4/Cyclin D1 partially-purified enzyme (amount dependent on enzyme activity) diluted in 25 μl incubation buffer was added to each well then 20 μl of GST-Rb/ATP/ATP33 mixture (containing 0.54 μg GST-Rb and 0.2 μM ATP and 0.14 μCi [γ-33-P]-Adenosine Triphosphate), and the resulting mixture shaken gently, then incubated at room temperature for 60 minutes. To each well was then added 150 μL stop solution containing (0.8 mg/well of Protein A-PVT SPA bead (Amersham)), 20 pM/well of Anti-Glutathione Transferase, Rabbit IgG (obtained from Molecular Probes), 61 mM EDTA and 50 mM HEPES pH 7.5 containing 0.05% sodium azide. The plates were sealed with Topseal-S plate sealers, left for two hours then spun at 2500 rpm, 1124×g., for 5 minutes. The plates were read on a Topcount for 30 seconds per well. […]

T1 sequence (P11802 whole entry): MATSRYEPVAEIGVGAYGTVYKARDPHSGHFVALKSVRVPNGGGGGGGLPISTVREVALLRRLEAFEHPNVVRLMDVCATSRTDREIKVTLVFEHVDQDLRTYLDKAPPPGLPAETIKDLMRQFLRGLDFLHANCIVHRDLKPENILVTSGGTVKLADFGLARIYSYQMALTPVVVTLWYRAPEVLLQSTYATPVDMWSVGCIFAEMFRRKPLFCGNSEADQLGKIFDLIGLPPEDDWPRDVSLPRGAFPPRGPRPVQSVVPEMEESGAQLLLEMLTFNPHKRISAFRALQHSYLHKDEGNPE
T1 sequence (P24385 whole entry partner): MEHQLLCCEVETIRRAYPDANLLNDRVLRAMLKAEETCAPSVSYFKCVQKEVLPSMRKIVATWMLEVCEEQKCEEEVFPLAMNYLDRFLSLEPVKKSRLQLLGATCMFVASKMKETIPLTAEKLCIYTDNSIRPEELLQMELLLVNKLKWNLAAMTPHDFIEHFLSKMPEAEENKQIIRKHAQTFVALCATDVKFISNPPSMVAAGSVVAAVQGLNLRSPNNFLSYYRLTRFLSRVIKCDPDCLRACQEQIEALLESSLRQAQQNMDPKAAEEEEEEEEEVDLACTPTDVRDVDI

Structure (SMILES)	IC50 [nM]
Cc1ccc(N(CC#N)c2cc(Nc3ccc(OCC(O)CN(C)C)cc3)ncn2)c(Br)c1 (centres unmarked) [Example 1, 4-{4-[3-(N,N-Dimethyl)amino-2-hydroxyproroxy]anilino}-6-(N-cyanomethyl-2-bromo-4-methylanilino)pyrimidine]	110
Cc1ccc(Cl)c(N(CC#N)c2cc(Nc3ccc(OCC(O)CN(C)C)cc3)ncn2)c1 (centres unmarked) [Example 2, 4-{4-[3-(N,N-Dimethyl)amino-2-hydroxylropoxy]anilino}-6-(N-cyanomethyl-2-chloro-5-methylanilino)pyrimidine]	70
